Paper PMC2410173, “Pharmacokinetics and efficacy of 2-methoxyoestradiol and 2-methoxyoestradiol-bis-sulphamate in vivo in rodents” (British Journal of Cancer, 2004)
“Also recorded” adds a separate entry of the source. Read-outs that look alike come from different tables or passages of the source.

Key:
[1] = Pharmacokinetics and metabolism in rat plasma after a single intravenous or oral dose (HPLC); assay type: in vivo
Protocol: Female Wistar (155–165 g) rats were purchased from Charles River UK Ltd (Margate, Kent, UK) and housed in a dedicated animal facility. Rats received RM1 rodent maintenance diet (SDS, Kent, UK), water ad libitum, and were maintained in positive pressure isolators under a 12 h light–dark cycle. These experiments were carried out under conditions that complied with institutional requirements. Rats received 2-MeOE2 or 2-MeOE2bisMATE (10 mg kg^−1, oral or intravenous), with control animals receiving vehicle only (propylene glycol: THF, 9 : 1 v v^−1). There were two reasons for selecting 10 mg kg^−1 for both oral and intravenous dosing. […] Rats were subjected to terminal anaesthesia (Halothane) and blood removed by cardiac puncture at 5, 15 and 30 min and 1, 3, 8 and 24 h after intravenous administration, and 15 and 30 min and 1, 3, 8, 24 and 48h following oral administration of 2-MeOE2 or 2-MeOE2bisMATE. Plasma was prepared from whole blood by centrifugation (2800 g, 4°C, 15 min). Plasma (0.5 ml) was extracted with diethyl ether (4 ml) and frozen in a methanol : solid carbon dioxide mixture. 17α-Epitestosterone (28 μg ml^−1) was used as an internal standard after purification by HPLC. The organic phase was decanted to a fresh tube and evaporated to dryness under a stream of air at room temperature. The extraction efficiencies for 2-MeOE2 and 2-MeOE2bisMATE from plasma were 71±5 and 75±4% (n=6), respectively. The residues were stored at −20°C until analysis by HPLC.
2-MeOE2bisMATE was separated from its putative metabolites, 2-MeOE2, 2-MeOE2-3MATE and 2-MeOE2-17MATE, using a modified version of a reversed-phase HPLC method described previously ([Hildago Aragones et al, 1996]). An Agilent 1100 (Cheshire, UK) autosampler, photodiode array detector and solvent delivery system were used. The agents were separated from endogenous plasma components by an isocratic mobile phase consisting of 58% methanol in 0.02 M ammonium sulphate. Sodium azide (1 mM) was added to the mobile phase in order to decrease microbial growth. Extracted samples were reconstituted in mobile phase and aliquots of 100 μl were injected on to a C3-phenyl column (250 × 5 mm, 5 μm) purchased from Phenomenex (Cheshire, UK). 2-Methoxyoestradiol-bis-sulphamate, 2-MeOE2 and their metabolites were analysed with a photodiode array detector with detection at 285 nm. The method was validated by spiking plasma with 2-MeOE2bisMATE (960 ng ml^−1). The inter-day and intra-day coefficients of variation were 8.2% (n=6) and 3.8% (n=6), respectively. Quantification was achieved by spiking plasma with 2-MeOE2bisMATE and the internal standard 17α-epitestosterone, extraction with diethyl ether and subsequent analysis by HPLC. […] The limits of detection (LODs) and quantification of 2-MeOE2bisMATE in plasma were 11 and 40 ng ml^−1, respectively.
Pharmacokinetic parameters were calculated using WinNonlin software (Pharsight Corporation, Mountview, CA, USA). The area under the curve (AUC) was calculated using the linear trapezoidal method, with extrapolation of the terminal phase to infinity. Other parameters calculated were: distribution and elimination rate constants (α and β); total body clearance (Cl)=dose/AUC; volume of distribution (Vd)=Cl/β; distribution half-life (t1/2α)=0.693/α; elimination half-life (t1/2β)=0.693/β; bioavailability (% F=(AUCoral/AUCi.v) × 100).

steroid sulphatase [2] = target: T1, steroid sulphatase (Rattus norvegicus, UniProt P15589); experiment: Liver oestrone sulphatase activity after in vivo dosing
T1 construct: Livers were obtained from animals administered with 2-MeOE2 or 2-MeOE2bisMATE either orally or intravenously, to assess their effects on steroid sulphatase activity; from tissue; host or cells: liver of female Wistar rats
T1 sequence (P15589 20-577): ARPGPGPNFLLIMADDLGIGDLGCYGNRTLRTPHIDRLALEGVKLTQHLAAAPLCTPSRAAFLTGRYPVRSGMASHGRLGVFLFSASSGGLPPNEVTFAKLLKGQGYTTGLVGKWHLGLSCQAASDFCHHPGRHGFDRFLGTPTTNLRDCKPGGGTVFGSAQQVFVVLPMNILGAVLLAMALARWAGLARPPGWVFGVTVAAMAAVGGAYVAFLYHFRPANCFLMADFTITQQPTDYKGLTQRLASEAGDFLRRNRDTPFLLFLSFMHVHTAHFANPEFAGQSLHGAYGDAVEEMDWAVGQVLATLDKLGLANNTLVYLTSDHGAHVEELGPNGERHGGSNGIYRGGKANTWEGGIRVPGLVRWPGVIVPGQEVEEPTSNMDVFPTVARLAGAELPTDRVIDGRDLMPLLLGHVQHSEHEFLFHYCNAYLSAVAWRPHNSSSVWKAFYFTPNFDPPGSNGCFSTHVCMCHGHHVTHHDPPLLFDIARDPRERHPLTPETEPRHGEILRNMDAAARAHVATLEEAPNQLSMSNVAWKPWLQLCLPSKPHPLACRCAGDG
Protocol: Livers were obtained from animals administered with 2-MeOE2 or 2-MeOE2bisMATE either orally or intravenously, to assess their effects on steroid sulphatase activity. Steroid sulphatase activity was measured as described previously ([Purohit et al, 1995]).

[3] = tested on: MDA-MB-435 (ER−) human melanoma cells xenografts; experiment: In vivo inhibition of tumour growth, MDA-MB-435 xenografts in nude mice; parameters: species or system mouse; conditions: 20 mg kg^−1 oral daily for 28 days; for effect on tumour growth / tumour volumes versus control: treatment and post-dosing periods
Protocol: (§1) To compare the anticancer effects of 2-MeOE2 and 2-MeOE2bisMATE, xenografts derived from MDA-MB-435 (ER−) human melanoma cells were transplanted into female nude mice with eight mice per group. These studies were carried out by Anti-Cancer Inc. (San Diego, CA, USA). Treatment was initiated when tumour volumes reached 100–200 mm^3. Drugs were dissolved in a minimum volume of THF, diluted with propylene glycol and administered at 20 mg kg^−1, oral, daily for 28 days. The length (l) and width (w) of tumours was measured at weekly intervals, from which the tumour volumes were calculated using the formula (l × w^2/2). Monitoring of tumour volumes continued for a further 28-day period after the end of drug administration. The body masses of control and treated animals were also measured at weekly intervals as an indicator of any toxicity that might be associated with the use of these drugs.
Student's t-test was used to assess the significance of differences in tumour volumes between control and treated animals.

[4] = Body masses of xenograft-bearing mice as an indicator of toxicity; assay type: in vivo, mouse; conditions: nude mice, 20 mg kg^−1 oral daily for 28 days
Protocol: as §1

steroid sulphatase [5] = target: T1, steroid sulphatase; parameters: method as in Purohit et al, 1995; conditions: single dose 10 mg kg^−1 oral or intravenous; ref Purohit et al, 1995; cited from earlier work
[6] = in vivo; cited from earlier work
[7] = tested on: human umbilical vein endothelial cell (HUVEC); parameters: method as in Newman et al, 2004; conditions: in vitro; ref Newman et al, 2004; cited from earlier work
[8] = female, Wistar, in vivo, iv, 10 mg/kg
[9] = female, Wistar, in vivo, po, 10 mg/kg

With `COc1cc2c(cc1O)CC[C@@H]1[C@@H]2CC[C@]2(C)[C@@H](O)CC[C@@H]12` [2-MeOE2, 2-Methoxyoestradiol] the “% F (bioavailability)” value ([1]; 10 mg kg^−1, (AUCoral/AUCi.v) × 100) was “very low”, the plasma concentration ([1]; 1 h after 10 mg kg^−1 intravenous bolus, LOD 11 ng ml^−1) was “below the LOD” and the “level in plasma as putative metabolite of 2-MeOE2bisMATE” value ([1]; after oral or intravenous 2-MeOE2bisMATE 10 mg kg^−1) was “not above the LOD”. The concentration at 1 h ([1]; female, Wistar, plasma, iv, 10 mg kg^−1, rat, 1 h after 10 mg kg^−1 intravenous bolus, LOD 11 ng ml^−1) was < 11 ng/mL, the half-life ([1]; female, Wistar, plasma, iv, 10 mg kg^−1, rat, after intravenous administration, read-out: half-life in plasma) was ~14 min and the “inhibition of hepatic sulphatase activity compared with control animals” value (steroid sulphatase [2]; rat liver, single oral or intravenous dose 10 mg kg^−1) was “did not affect”. The “effect on tumour growth / tumour volumes versus control” value [3] was “did not inhibit tumour growth; also recorded: no significant effect” and the body weights [4] was “No decreases”.

For `C[C@]12CC[C@@H]3c4ccc(OS(N)(=O)=O)cc4CC[C@H]3[C@@H]1CCC2=O` [EMATE, oestrone-3-O-sulphamate], the “inhibition of rat liver sulphatase” value (steroid sulphatase [5]) is listed as “at least 99%” and the half-life in plasma [6] is listed as 4.5 h.

With `COc1cc2c(cc1OS(N)(=O)=O)CCC1C2CC[C@]2(C)C(OS(N)(=O)=O)CCC12` (stereo partly drawn) [2-MeOE2bisMATE, 2-methoxyoestradiol-bis-sulphamate] the plasma concentrations detected ([1]; female, Wistar, in vivo) was “up to 5 μM”, the bioavailability ([1]; female, Wistar, in vivo, 10 mg/kg, % F (bioavailability)) was 85% and the AUC [1, 8] was 514 ± 154 µg·h/mL. For the same compound, the Cmax [1, 8] was 6550 ± 920 ng/mL, the Vd [1, 8] was 0.28 ± 0.09 L and the clearance [1, 8] was 0.833 mL/min. The half-life ([1]; female, Wistar, in vivo, iv, 10 mg/kg, t1/2α (distribution half-life)) was 13.2 ± 6 min, the half-life ([1]; female, Wistar, in vivo, iv, 10 mg/kg, t1/2β (terminal half-life)) was 510 ± 69.6 min and the “time for which compound was detectable in plasma” value ([1]; female, Wistar, in vivo, po) was “at least 24 h”. The AUC [1, 9] was 389 ± 28.8 µg·h/mL, the Cl [1, 9] was 0.036 ± 0.001 L/h and the Cmax [1, 9] was 3900 ± 250 ng/mL. For the same compound, the Vd [1, 9] was 0.35 ± 0.02 L, the half-life ([1]; female, Wistar, in vivo, po, 10 mg/kg, t1/2β (terminal plasma half-life)) was 391 ± 65.4 min and the plasma concentration ([1]; female, Wistar, in vivo, po, 24 h) was 450 ng/mL. The “time for which inhibition of sulphatase activity was maintained” value (steroid sulphatase [2]; rat liver, after single dose) was 48 h, the “inhibition of steroid sulphatase activity” value (steroid sulphatase [2]; rat liver, within 5 min of intravenous dosing) was > 99% and the “inhibition of steroid sulphatase activity” value (steroid sulphatase [2]; rat liver, within 15 min of oral dosing) was > 99%. The inhibition at 10 mg/kg (steroid sulphatase [2]; rat, read-out: inhibition of hepatic sulphatase activity compared with control animals) was 99.5 ± 0.5%, the “effect on tumour growth / tumour volumes versus control” value [3] was “almost completely inhibited tumour growth; also recorded: significantly smaller” and the “mean tumour volume as % of tumour volume in control animals” value ([3]; at 4 weeks, end of dosing) was 14%. For the same compound, the “difference in tumour volumes versus control group” value ([3]; maintained for a further 4 weeks after cessation) was 86% and the “potency relative to 2-MeOE2 in HUVEC growth inhibition” value [7] was 60 fold.
